Assay results: patent US20070059294A1, “Therapeutiv preparation for hematopoietic disease” (priority 2003, published 2007)

Legend:
Type in all cases: cell-based, mouse
syno^−/− MEFs [1] = test: TUNEL apoptosis assay of MEFs treated with apoptotic stimuli; conditions: thapsigargin 1 μM 48 h, tunicamycin 10 ng/ml 48 h; for proportion of apoptotic (TUNEL-positive) cells: syno^−/− MEFs, low serum (1% FCS), anti-Fas 1 μg/ml 48 h
Experimental: (§1) Apoptosis can be induced through several pathways. To identify the apoptotic pathway that describes Synoviolin involvement, mouse embryonic fibroblasts (MEFs) isolated from syno^−/− and wild-type mice were treated in vitro with the following four apoptotic stimuli, monoclonal anti-Fas antibodies (Abs), gamma-irradiation, tunicamycin (N-glycosylation inhibitor), and thapsigargin (Ca^2-ATPase inhibitor). Under control conditions, the proportion of syno^−/− MEF apoptotic cells was higher (16±4%) than MEF wild-type (6±2%, FIG. 5A). […] Moreover, the sensitivity against ER stress-induced agents was increased in a dose-dependent fashion (FIG. 5B).
(§2) Tissues were prepared as described above. Conditioned culture cells were fixed in 10% formalin for 15 minutes and attached to APS-coated slide glasses. These specimens were subjected to TUNEL assay. TUNEL assay was performed according to the protocol provided by the manufacturer (Apoptosis in situ detection kit; Wako, Osaka, Japan).
(§3) MEFs were isolated from E10.5 embryos of syno^−/− and wild-type mice by trypsin digestion after removal of the head and internal organs. Isolated cells were cultured in Dulbecco's modified Eagle's medium containing 20% fetal calf serum (FCS).
(§4) (A) MEFs derived from syno^+/+ and syno^−/− mice were treated with various apoptotic stimuli, including anti-Fas monoclonal antibodies (1μg/ml for 48 hours), X-irradiation (6 Gy for 72 hours), thapsigargin (1 μM for 48 hours) and tunicamycin (10 ng/ml for 48 hours), or untreated (−), in low serum (1%FCS) medium. Apoptotic cells were detected by TUNEL analysis. (B) syno^+/+ and syno^−/− MEFs were treated with indicated dose of stimuli. Apoptosis was measured by quantitation of DNA fragmentation using the cell death detection ELISA method (Boehringer Mannheim). *p<0.01. The number of apoptotic syno^−/− MEFs was higher in cultures treated with thapsigargin and tunicamycin compared with the respective syno^+/+ MEFs. (C) syno^+/+ and syno^−/− MEFs were infected with adenovirus vector (100 moi) carrying LacZ(−) or synoviolin gene(+), then treated with the same aforementioned agents. In syno^−/− MEFs, ER-stress induced apoptosis was rescued by infection with synoviolin.

wild-type MEFs = test: as above; conditions: low serum (1% FCS), anti-Fas 1 μg/ml 48 h, thapsigargin 1 μM 48 h, tunicamycin 10 ng/ml 48 h
Experimental: as §1, §2, §3, §4

syno^−/− MEFs [2] = test: DNA fragmentation, cell death detection ELISA; conditions: indicated doses of stimuli, FIG. 5B, p<0.01
Experimental: as §4

| Compound | proportion of apoptotic (TUNEL-positive) cells (syno^−/− MEFs [1]) | increase in number of TUNEL-positive syno^−/− MEFs compared with wild-type MEFs (syno^−/− MEFs [1]) | proportion of apoptotic (TUNEL-positive) cells (wild-type MEFs) | number of apoptotic syno^−/− MEFs compared with the respective syno^+/+ MEFs (syno^−/− MEFs [2]) |
| --- | --- | --- | --- | --- |
| C/C=C(/C)C(=O)O[C@H]1C(C)=C2[C@H]([C@@H]1OC(=O)CCCCCCC)[C@@](C)(OC(C)=O)C[C@H](OC(=O)CCC)[C@@]1(O)[C@H]2OC(=O)[C@@]1(C)O [thapsigargin] | 90±1% | 2.4 fold | 38±7% | higher |
| tunicamycin | 56±3% | 1.7 fold | 33±7% | higher |
